Laboratory results reported in patent US9951366B2, “Cell-free protein synthesis method and device using a eukaryotic cell lysate in the presence of a caspase inhibitor and the use of a caspase inhibitor for increasing the yield and/or the stability of the synthesized proteins in such a method” (Fraunhofer-Gesellschaft zur Foerderung der angewandten …, priority 2013, dated 2018).
Peptide text beside a SMILES is read from it. * marks the point of attachment. Cbz = O=C(OCc1ccccc1)*; CH2F = FC*

What was measured:
[1] = test system: cell-free eukaryotic translation system on the basis of a cell extract from Spodoptera frugiperda (Sf21) insect cells; experiment: Cell-free synthesis of SII-eYFP, fluorescence intensity (phosphorimager), Example 1; assay type: biochemical; details: dialysis system after 48 h, −V, +CI versus −CI, densitometric evaluation
Procedure: The expression of the model protein was analyzed in the batch system and the dialysis system (50 μl reaction chamber; 1000 μl feeding chamber; cut-off of the membrane=10 kDa) over a period of 48 h. The translation mixtures were each incubated in the batch system and the dialysis system with (+) and without (−) insect cell vesicles (V) and with (+) and without (−) caspase inhibitor (CI) (at 27° C. and 600 rpm). The protein synthesis was carried out in the presence of the radioactively labeled amino acid ^14C-leucine in order to be able to determine the quantity of de novo synthesized target protein by means of hot TCA precipitation and scintillation measurement. The translation reactions were interrupted at particular time points (0 h, 2 h, 4 h, 24 h and 48 h) and analyzed as follows: 5 μl of the mixture was precipitated in hot TCA or ice-cold acetone in each case. A further 5 μl was resuspended in 25 μl PBS. The remaining sample volume was separated by means of a centrifuging step into the supernatant fluid (SN) and the vesicular fraction (VF). […] The samples resuspended in PBS were examined in the phosphorimager system (Typhoon TRIO+ imager, GE Healthcare) for their fluorescence intensity. For this purpose, 25 μl samples were pipetted into each cavity of the Ibidi slides and measured, the excitation of the samples taking place at 488 nm and the emission being measured at 526 nm.

[2] = test system: cell-free eukaryotic translation system on the basis of a cell extract from Spodoptera frugiperda (Sf21) insect cells; experiment: Cell-free expression of membrane proteins (ETB, Hb-EGF, bacteriorhodopsin), protein yield by scintillation measurement; assay type: biochemical
From the text: Here, the influence of the caspase inhibitor on the expression of different membrane proteins in the eukaryotic translation system was investigated more closely. For this purpose, three different model proteins were selected: the endothelin-B receptor (ETB) is a G-protein coupled receptor with seven transmembrane domains which was used cloned into the vector pIX3.0 (Qiagen) for the expression. Furthermore, the type I transmembrane protein heparin-binding EGF-like growth factor (Hb-EGF), N-terminally fused to the melittin signal sequence and C-terminally fused to eYFP, present in the vector pIX3.0, was used for the expression. In addition, the expression of the membrane protein bacteriorhodopsin which also has seven transmembrane domains and was present in the vector pMA (GeneArt) was investigated. The three proteins were each expressed in the batch and dialysis systems without (−) and with (+) the addition of the caspase inhibitor (CI) in the presence of ^14C-leucine for 48 h (27° C.; 600 rpm, Eppendorf Thermomixer Comfort) and analyzed as in example 1. […] The expression of each of the three membrane proteins (ETB, 49.3 kDa; Hb-EGF, 51 kDa; bacteriorhodopsin, 26.9 kDa) was able to be increased in the dialysis system (comparison of the dialysis batches +CI and −CI) with the addition of the caspase inhibitor by approximately 100% (FIG. 2).

[3] = test system: Mel-hEGFR-eYFP in Sf21 insect cell lysates; experiment: Stability of de novo synthesized Mel-hEGFR-eYFP in batch mode (SDS-PAGE, autoradiography); assay type: biochemical, Spodoptera frugiperda; details: inhibitor 30 μM
From the text: The positive influence of the caspase inhibitor on the stability of cell-free synthesized proteins is shown here on the basis of the expression of the EGF receptor, the protein being a human, high molecular weight transmembrane protein (Epidermal Growth Factor Receptor) with intrinsic tyrosine kinase activity. The coding sequence of the EGF receptor was fused N-terminally with a melittin signal sequence (Mel) and C-terminally with yellow fluorescent protein (eYFP) and cloned into the vector pIX3.0 (Qiagen). The model protein is denoted below as Mel-hEGFR-eYFP (=163 kDa). The melittin signal sequence enables translocation of the membrane protein into the microsomes of the eukaryotic cell extract and subsequently embedding into the membrane of the microsomes. Mel-hEGFR-eYFP has nine potential N-glycosylation sites and therefore, due to the translocation of the target protein, N-glycosylation of the target protein is also enabled in the cell-free system. […] The translation reaction was carried out in the absence and the presence of a caspase inhibitor (Z-VAD-FMK, Promega, 30 μM) and a protease inhibitor mixture (“Complete Protease Inhibitor Cocktail”, Roche), respectively, and stopped at the indicated incubation times (1.5 h, 5 h and 24 h) by freezing the translation reaction in liquid nitrogen. […]

[4] = test system: Mel-hEGFR-eYFP in microsomes of the insect cell lysate; experiment: Multiple (repetitive) synthesis of Mel-hEGFR-eYFP into microsomes of the insect cell lysate; assay type: biochemical, Spodoptera frugiperda
Procedure: A suitable method for increasing the concentration of a particular target protein in the lumen or the membrane of the insect cell vesicles lies in carrying out multiple syntheses. This procedure leads to a longer dwell time of the de novo synthesized target proteins in the translation mixture. For successful conversion, it is therefore absolutely necessary to ensure the stability of the target proteins even after relatively long incubation times (>1.5 h) in the translation mixture. For this purpose, the caspase inhibitor Z-VAD-FMK was added to the translation reaction. The multiple synthesis of the target protein was carried out as follows: the microsomes of the translation mixture incubated under standard conditions (27° C., 1.5 h) were pelleted with a centrifugation step at 16,000 g and resuspended in a new translation-active cell lysate without microsomes and incubated again for 1.5 h at 27° C. in the presence of the caspase inhibitor Z-VAD-FMK. In the present experimental example, the synthesis was repeated four times. Following each synthesis step, the yield of radioactively labeled protein in the translation mixture, the supernatant and the vesicular fraction were determined. In addition, 5 μl of the translation mix were precipitated in acetone and subsequently separated out electrophoretically. […] The addition of the caspase inhibitor to the translation reaction enables a synthesis of the target protein over a total of 6 h.

[5] = dialysis system 48 h, +CI vs −CI
[6] = from synthesis steps 1 to 4, in presence of Z-VAD-FMK

Compound: COC(=O)C[C@H](NC(=O)[C@H](C)NC(=O)[C@@H](NC(=O)OCc1ccccc1)C(C)C)C(=O)CF [Z-VAD-FMK, benzyloxycarbonyl-Val-Ala-Asp-[O-methyl]-fluoromethylketone] (Cbz-Val-Ala-Asp(OMe)-CH2F)
- fluorescence signal of SII-eYFP, fold more intense [1]: 3.7 times
- increase of expression of ETB [2, 5]: approximately 100%
- increase of expression of Hb-EGF [2, 5]: approximately 100%
- increase of expression of bacteriorhodopsin [2, 5]: approximately 100%
- increase of maximum achievable yields of membrane protein, average ([2]; dialysis system, addition of caspase inhibitor): approximately 100%
- Mel-hEGFR-eYFP integrity in the autoradiograph ([3]; after 24 h incubation time): detectable in an intact form
- proteolytic decomposition of Mel-hEGFR-eYFP (autoradiograph) ([3]; compared with no inhibitor, 5 h): reduced signs of a proteolytic decomposition
- total time over which synthesis of the target protein is enabled ([4]; four repeated syntheses of 1.5 h at 27° C. in presence of caspase inhibitor): 6 h
- increase of yield of target protein, total protein in the translation mixture [4, 6]: 110%
- increase of yield of target protein, vesicular fraction [4, 6]: 180%
